# Assays:
# [1] = Andersen Cascade Impactor particle size distribution of the emitted dose of the metered dose inhaler; type: physicochemical; conditions: Formoterol/Mometasone 6/50 μg/actuation inhaler
# Source text: The formulations of the present invention were further analyzed using an Andersen Cascade Impactor as described in Examples 6 and 7. The Andersen Cascade Impactor is widely used for measuring the particle size distribution of airborne particles and more specifically pharmaceutical aerosols. The eight stage Andersen Impactor separates the sample into nine size intervals when used with a backup filter after the last impaction stage. In FIGS. 1 to 4, this corresponds Stage 0 of particles having a particle size less than 10 μm to a particle size of 0.65-0.43 μm in stage 8, with the final stage corresponding to the filter for particles less than 0.43 μm. The measurement of the particle size at the “throat” in the figures corresponds to the entry port of the Impactor. The fine particle fraction is defined as the percentage of particles having a particle size of less than 4.7 μm. The fine particle dose is defined as the amount in μg per dose that is less than 4.7 μm in size in each actuation. The μg/shot is the total amount of emitted drug product that exits the metered dose inhaler upon actuation. The determination of the particle size distribution of the emitted dose of the formulation using an Andersen Cascade Impactor is known to one of skill in the art.
# A formulation containing 6 μg of formoterol fumarate and 50 μg of mometasone furoate using HFA 227 in the absence of a bulking agent or carrier in a metered dose inhaler was analyzed by an Andersen Cascade Impactor to 5 analyze the amount of active drug ingredients and the particle size of the actives exiting the inhaler over time. […] The metered dose for both actives over time was also within acceptable limits (62.9 to 63.3 for mometasone and 6.6 to 6.5 for formoterol at the 4 month point). […]
# A formulation containing 6 μg of formoterol fumarate and 50 μg of mometasone furoate using HFA 134a with lactose as a bulking agent in a metered dose inhaler was analyzed by an Andersen Cascade Impactor to analyze the amount of active drug ingredients and the particle size of the actives exiting the inhaler over time. […] Additionally, the metered dose actually delivered was also maintained over time within acceptable limits (64.1 to 63.7 for mometasone, 6.9 to 6.6 for formoterol). The fine particle fraction for both mometasone and formoterol was maintained within acceptable limits.
# [2] = Drug Content Uniformity (DCU) through the life of a 120 dose MDI; type: physicochemical; conditions: Formoterol/Mometasone 6/50 μg/actuation inhaler
# Method: The Drug Content Uniformity (DCU) of the inhaler was measured throughout the life of a 120 dose MDI to ascertain whether there was a consistency of dose of the active ingredients throughout the life of the product. Five canisters of each formulation (HFA 227 or HFA 134a) were analyzed and each canister delivered 120 actuations of medication and the amount of actives exiting the inhaler per actuation was measured at varying actuations, e.g., numbers 11, 12, 13, 14, (beginning) 59, 60, 61, 62 (middle) and 117, 118, 119 and 120 (end). Means were determined for the beginning, middle and end actuations, and an overall mean was determined and set forth in Examples 9 and 10 above.
# [3] = Percent change in fine particle size after temperature cycling; type: physicochemical
# Source text: A finer particle size distribution of the mometasone furoate improves the fine particle fraction of the formulation exiting the inhaler upon actuation of the metered dose inhaler. […] The aerodynamic particle size distribution is well within the range of a typical efficacious topical lung medication, e.g., greater than 50% of the particles are less than 4.7 microns.
# [4] = cited from earlier work
# [5] = cited from earlier work; remark: listed apart in the source
# [6] = HFA 134a, low bulking agent (lactose), 1 Month, 4 C./40 C.
# [7] = HFA 134a, low bulking agent (lactose), 1 Month, 40 C./75%
# [8] = HFA 134a, low bulking agent (lactose), 3 Month, 4 C./40 C.
# [9] = HFA 134a, low bulking agent (lactose), 4 Month, 25 C./60%
# [10] = HFA 134a, low bulking agent (lactose), 4 Month, 40 C./75%
# [11] = HFA 134a, low bulking agent (lactose), Initial
# [12] = HFA 227, without bulking agent, 1 Month, 4 C./40 C.
# [13] = HFA 227, without bulking agent, 1 Month, 40 C./75%
# [14] = HFA 227, without bulking agent, 3 Month, 4 C./40 C.
# [15] = HFA 227, without bulking agent, 4 Month, 25 C./60%
# [16] = HFA 227, without bulking agent, 4 Month, 40 C./75%
# [17] = HFA 227, without bulking agent, Initial
structure (smiles),measurement,setting,value
"C[C@@H]1C[C@H]2[C@@H]3CCC4=CC(=O)C=C[C@]4(C)[C@@]3(Cl)[C@@H](O)C[C@]2(C)[C@@]1(OC(=O)c1ccco1)C(=O)CCl [Mometasone Furoate, 9,21-Dichloro-11(beta), 17-dihydroxy-16(alpha)-methylpregna-1,4-diene-3,20-dione 17-(2 furoate)]",Fine Particle Dose (μg/shot),[1]; [6],10.6 μg/shot
same,Fine Particle Fraction %,[1]; [6],20.1%
same,MMAD (microns),[1]; [6],4.3 microns
same,μg/shot (metered dose),[1]; [6],65.0 μg/shot
same,Fine Particle Dose (μg/shot),[1]; [7],10.1 μg/shot
same,Fine Particle Fraction %,[1]; [7],20.1%
same,MMAD (microns),[1]; [7],4.3 microns
same,μg/shot (metered dose),[1]; [7],62.2 μg/shot
same,Fine Particle Dose (μg/shot),[1]; [8],10.0 μg/shot
same,Fine Particle Fraction %,[1]; [8],20.0%
same,MMAD (microns),[1]; [8],4.6 microns
same,μg/shot (metered dose),[1]; [8],62.6 μg/shot
same,Fine Particle Dose (μg/shot),[1]; [9],11.4 μg/shot
same,Fine Particle Fraction %,[1]; [9],22.6%
same,MMAD (microns),[1]; [9],4.3 microns
same,μg/shot (metered dose),[1]; [9],62.1 μg/shot
same,Fine Particle Dose (μg/shot),[1]; [10],8.8 μg/shot
same,Fine Particle Fraction %,[1]; [10],17.7%
same,MMAD (microns),[1]; [10],4.5 microns
same,μg/shot (metered dose),[1]; [10],63.7 μg/shot
same,Fine Particle Dose (μg/shot),[1]; [11],13.6 μg/shot
same,Fine Particle Fraction %,[1]; [11],25.7%
same,MMAD (microns),[1]; [11],3.9 microns
same,μg/shot (metered dose),[1]; [11],64.1 μg/shot
same,Fine Particle Dose (μg/shot),[1]; [12],9.2 μg/shot
same,Fine Particle Fraction %,[1]; [12],16.4%
same,MMAD (microns),[1]; [12],5.0 microns
same,μg/shot (metered dose),[1]; [12],62.6 μg/shot
same,Fine Particle Dose (μg/shot),[1]; [13],13.9 μg/shot
same,Fine Particle Fraction %,[1]; [13],25.3%
same,MMAD (microns),[1]; [13],4.1 microns
same,μg/shot (metered dose),[1]; [13],62.4 μg/shot
same,Fine Particle Dose (μg/shot),[1]; [14],5.3 μg/shot
same,Fine Particle Fraction %,[1]; [14],9.8%
same,MMAD (microns),[1]; [14],6.3 microns
same,μg/shot (metered dose),[1]; [14],60.5 μg/shot
same,Fine Particle Dose (μg/shot),[1]; [15],16.1 μg/shot
same,Fine Particle Fraction %,[1]; [15],30.4%
same,MMAD (microns),[1]; [15],4.2 microns
same,μg/shot (metered dose),[1]; [15],61.5 μg/shot
same,Fine Particle Dose (μg/shot),[1]; [16],10.4 μg/shot
same,Fine Particle Fraction %,[1]; [16],18.6%
same,MMAD (microns),[1]; [16],4.6 microns
same,μg/shot (metered dose),[1]; [16],63.3 μg/shot
same,Fine Particle Dose (μg/shot),[1]; [17],19.7 μg/shot
same,Fine Particle Fraction %,[1]; [17],36.5%
same,MMAD (microns),[1]; [17],3.7 microns
same,μg/shot (metered dose),[1]; [17],62.9 μg/shot
same,Overall Mean μg/shot,"[2]; HFA 134a, low bulking agent, 1 Month, 4 C./40 C.",55.7 μg/shot
same,Overall Mean μg/shot,"[2]; HFA 134a, low bulking agent, 1 Month, 40 C./75%",57.0 μg/shot
same,Overall Mean μg/shot,"[2]; HFA 134a, low bulking agent, Initial",59.1 μg/shot
same,Overall Mean μg/shot,"[2]; HFA 227, no bulking agent, 1 Month, 4 C./40 C.",55.6 μg/shot
same,Overall Mean μg/shot,"[2]; HFA 227, no bulking agent, 1 Month, 40 C./75%",54.9 μg/shot
same,Overall Mean μg/shot,"[2]; HFA 227, no bulking agent, Initial",54.7 μg/shot
same,percent change in fine particle size,"[3]; grade of mometasone used in Example 6 (coarse), two weeks of temperature cycling at −10° C. and 40° C.",about 50%
same,percent change in fine particle size,"[3]; similar mdi using mometasone furoate alone, finer grade of mometasone furoate, same cycling conditions (two weeks, −10° C. and 40° C.)",≤ 15%
same,solubility in acetone,[4]; acetone,soluble
same,solubility in chloroform,[4]; chloroform,soluble
same,solubility in ethanol,[4]; ethanol,slightly soluble
same,solubility in isopropanol,[4]; isopropanol,slightly soluble
same,solubility in methanol,[4]; methanol,slightly soluble
same,solubility in tetrahydrofuran,[4]; tetrahydrofuran,freely soluble
same,solubility in water,[4]; water,practically insoluble
same,partition coefficient between octanol and water,[5],greater than 5000

# — US20050147565A1, “Pharmaceutical compositions for the treatment of asthma” (Schering Corporation, priority 2001, published 2005)
